Tests used:
[1] = tested on: oligodendrocytes and myelin; assay: IFN-γ-overexpressing mice crossed to PLP/SOCS1 mice, clinical and histological evaluation at postnatal day 21; format: in vivo; conditions: for oligodendrocyte density: corpus callosum, postnatal day 21; for G ratio (axon diameter/fiber diameter ratio): hypomyelination defined as G ratio>0.8
Experimental: IFN-γ-overexpressing mice were crossed to the PLP/SOCS1 mice in double-transgenic, (MBP/IFN-γ×PLP/SOCS1) and triple-transgenic (GFAP/tTA×TRE/IFN-γ×PLP/SOCS1) mating systems. MBP/IFN-γ×PLP/SOCS1 (172×PLP/SOCS1) mating was performed according to a standard mating protocol. The GFAP/tTA×TRE/IFN-γ×PLP/SOCS1 matings were performed in a 2-step mating process: GFAP/tTA mice were initially crossed to PLP/SOCS1 mice, and double-positive (184×PLP/SOCS1) offspring were then crossed to the TRE/IFN-γ lines 110 and 67, separately. This second mating step was performed according to the previously described “tet-off” protocol. Doxycycline 0.05 mg/ml (Sigma-Aldich) was added to the water of impregnated female mice until embryonic day 14, after which the animals were switched back to normal water, thereby allowing initiation of IFN-γ transcription, which peaks during the postnatal period (Lin et al., 2005).
The litters of the mating systems (F1 generation) were examined daily and sacrificed at postnatal day 21. Clinical evaluation included behavioral observation and challenged ladder walking to elicit tremor. Histological examination included quantitation of the number and density of oligodendrocytes and examination of the myelination patterns. Brain tissue was simultaneously obtained from each animal at the time of sacrifice to verify and measure the expression of IFN-γ and Flag-SOCS1 (see below). The clinical and histological findings were subsequently stratified according to genotype. All animal procedures were conducted in compliance with the National Institutes of Health Guide for Care and Use of Laboratory Animals and were approved by the Institutional Animal Care and Use Committee at The University of Chicago.
Oligodendrocyte cell density was assessed digitally using Axiovision software, at postnatal day 21, as previously described (Lin et al., 2005). The brains were sectioned sagittally through the corpus callosum dividing the brain in two symmetrical halves. Ten frozen sections from each half were prepared at 7 μm thickness, and numbered in the sequence of their preparation. The brains of three animals per study group were prepared in this fashion. Following the CC1 immunostaining the corresponding area of corpus callosum of each section was digitally selected and the corresponding total area obtained. CC1 cell counting was performed manually within the selected areas of each section, and the number of CC1 positive cells per square area (mm^2) calculated. The results were presented as mean±SD of CC1 (+) cells/mm^2 with n=3 animals per study group.
Myelination patterns of the examined animals were assessed at postnatal day 21 by calculating the percent unmyelinated axons and ratio of the axon/fiber diameters (G ratio) with Image J software (National Institutes of Health, Bethesda, Md.) as previously described (Lin at al., 2005). The brains were sectioned sagittally through the corpus callosum dividing the brain in two symmetrical halves. Approximately 2 mm^3 samples from the genu and the splenum of both halves of corpus callosum were obtained using a Wild M3C stereotype microscope. The orientation of the specimen in the resin blocks yielding axonal cross-sections (well seen myelin rings) was chosen, and established by toluedine blue staining of a few sample sections. The resin blocks with the chosen orientation were processed for electron microscope examination. Randomly selected areas were examined and ten representative pictures from both genu and splenum corpus callosum were obtained at 12000× magnification. The number of unmyelinated axons was assessed by manual counting of axons that lacked myelin and were encircled solely by their own plasma membrane. All unmyelinated axons present in the representative images were counted, and their percentage calculated by examining a total of five hundred axons per tissue sample. […]

[2] = tested on: EAE demyelinating lesions; assay: EAE, CNS delivery of INF-γ at the recovery stage (doxycycline withdrawn at PID7); format: in vivo, mice
Source text: Double transgenic mice that allow for temporally regulated delivery of INF-γ to the CNS (Lin et al., J Neurosci 24:10074-10083 (2004)) were used to assess the role of INF-γ in the pathogenesis of EAE. GFAP/tTA; TRE/IFN-γ double transgenic mice, as described in Example 1 were used to determine the effect of INF-γ on the demyelination caused by EAE. All mice were fed doxycycline from the day of conception to repress the expression of INF-γ, and were immunized with myelin oligodendrocyte protein (MOG35-55) to induce EAE. AT day 7 postimmunization (PID7), doxycycline was withdrawn from the experimental group (PID7 DOX−).
The level of INF-γ was determined in the control (DOX+) and the PID7 DOX− mice using an ELISA immunoassay as described in Example 1, and the severity of the disease was assessed as a function of a clinical score. Clinical severity scores were recorded daily according to a 0-5 point scale, where 0=healthy, 1=flaccid tail, 2=ataxia and/or paresis of hind limbs, 3=paralysis of hind limbs and/or paresis of forelimbs, 4=tetraparalysis, and 5=moribund or dead.
The spinal cord from DOX+ and DOX− animals with EAE was immunostained for MBP, and the remyelination of axons was evaluated. The number of oligodendrocytes was determined in the spine from DOX+ and DOX− mice as the number of CC1 positive cells. Axonal damage was evaluted by immunostaining of non-phosphorylated neurofilament-H. Antibodies to non-phosphorylated neurofilament-H were SM132 diluted to 1:1000 and obtained from Sternberger Monoclonals.
INF-γ is known to induce MHC antigens and activate macrophages and T lymphocytes. The inflammatory effect of INF-γ was studied in the CNS during remyelination by determining the infiltration of T cells and macrophages, and measuring the expression of MHC-1, TNF-a, IL-2, IL-12 and IL-17. Immunohistochemistry was performed in tissues from the DOX+ and DOX− mice with EAE as described in Example 4. Experimental procedures were followed as described in the examples above.

[3] = DOX− vs DOX+, spinal cord PID50

## IFN-γ: pleotropic cytokine secreted by activated T lymphocytes and natural killer cells; delivered to the CNS by transgene or added as recombinant protein
[1]; 172 × PLP/SOCS1 littermates, ten mice per group
  Incidence of tremor: 0%
[1]; 184/67 system
  oligodendrocytes lost: approximately 40%
  percentage of unmyelinated axons: 57±7%
  oligodendrocyte density: 79±9 CC1 (+) cells/mm^2
  G ratio (axon diameter/fiber diameter ratio): 0.95±0.04
[1]; 184/110 system
  oligodendrocytes lost: approximately 20%
  percentage of unmyelinated axons: 41%±6
  oligodendrocyte density: 115±8 CC1 (+) cells/mm^2
  G ratio (axon diameter/fiber diameter ratio): 0.89±0.02
[1]; MBP/IFN-γ and MBP/IFN-γ×PLP/SOCS1 brains
  MHC class I molecule expression (immunostaining): upregulated expression
[2]; DOX− animals, PID50
  number of CC1 positive oligodendrocytes: significantly decreased
[2]; DOX− mice, PID17
  mice that developed hind limb paralysis: 24 of 30
[2]; DOX− mice, PID17, 0-5 scale
  mean maximum clinical score: 2.69±0.69
[2]; DOX− mice, PID50
  clinical score: ~2
  mice continuing to suffer from hind limb paralysis: 12/24
[2]; DOX− vs DOX+
  axonal damage (non-phosphorylated neurofilament-H immunostaining): not affected
[2]; DOX− vs DOX+ mice
  level of MBP in the lumbar spinal cord (immunostaining): notably reduced
[2]; [3]
  expression of IL-17 (real time PCR): decrease
  expression of MHC-1, TNF-a, LL2 and IL-12 (real time PCR): increased
  expression of iNOs and IL-23 (real time PCR): did not alter
[2]; mouse, in vivo
  number of infiltrating T cells and macrophages in the lumbar spinal cord (CD3, CD11b): did not increase significantly

Source: patent publication US8053627B2, “Methods for treating demyelination disorders” (University of Chicago, priority 2005, dated 2011)
